One compound from patent publication US7531320B2, “Modulation of β-catenin/TCF-activated transcription” (priority 2003, dated 2009) can be followed below.

One assay has as its system SW480 cells. Put plainly: Soft agar colony formation assay with SW480 cells. The format is cell-based, human.
Another assay relates to hnkd. Put plainly: Real Time RT-PCR in SW480 cells, hnkd. The format is cell-based, human. To be noted: 25 μM; for ΔCT hnkd: relative to β-actin. The procedure:
The RNeasy Midi Kit (Qiagen) was used for RNA extraction and Real Time RT-PCR was performed according to the protocol provided with the SYBR Green PCR Master Mix Kit (Perkin Elmer Biosystems, Shelton, Conn.). The primers used for cyclin D1, axin2, hnkd, c-myc, c-jun, and fra-1 amplifications were: cyclin D1 forward primer:5′-[…]-CCTGCTG-3′ (SEQ ID NO: 32) reverse primer: 5′-[…]-3′ (SEQ ID NO: 33) leading to a product size of approximately 300 bp; axin2 forward primer: 5′-[…] GGAAA-CT-3′ (SEQ ID NO: 34) and reverse primer: 5′-[…]-GAGA-3′ (SEQ ID NO: 35); hnkd forward primer: 5′-[…] TTGCGT-3′ (SEQ ID NO: 36) and the reverse primer: 5′-[…] ACGT-3′ (SEQ ID NO: 37); c-myc forward primer: 5′-GAA-[…] CTGC-3′ (SEQ ID NO: 38) and reverse primer: 5′-[…]-G-3′ (SEQ ID NO: 39); c-jun forward primer: 5′-[…]-3′ (SEQ ID NO: 40) and reverse primer: 5′-[…]-3′ (SEQ ID NO: 41); fra-1 forward primer: 5′-ACC-[…]-[…]-3′ (SEQ ID NO: 42) and reverse primer: 5′-[…]-TT-3′ (SEQ ID NO: 43). β-actin was used for normalization. […]
1 μg of mRNA, for each time point, was subjected to Real Time RT-PCR. Expression level of endogenous cyclin D1, c-myc, fibronectin, hnkd, axin2, c-jun, and BMP-4 were measured relative to β-actin. Quantitation of The ΔCycle of Threshold (CT) values was determined by subtracting the average values of each set by the corresponding average values obtained for β-actin. […]
The cyclin D1 gene is inappropriately expressed in many different tumor types, and is known to be a direct target of the Wnt/β-catenin pathway (Shtutman et al., “The cyclin D1 gene is a target of the beta-catenin/LEF-1 pathway,” Proc. Natl. Acad. Sci. USA 96:5522-27 (1999); Tetsu et al., “Beta-catenin regulates expression of cyclin D1 in colon carcinoma cells,” Nature 398:422-26 (1999)). […] Expression level of endogenous cyclin D1, c-myc, fibronectin, hnkd, axin2, c-jun, and BMP-4 were measured relative to β-actin. Quantitation of The ΔCycle of Threshold (CT) values was determined by subtracting the average values of each set by the corresponding average values obtained for β-actin. […]
Background: Real-time PCR tracks product formation cycle by cycle.

One may read the IC50 as the concentration needed to halve the response being measured. A low value points to greater potency.

For the compound `O=C1C(Cc2ccc(O)cc2)N2C(=O)CCN(C(=O)NCc3ccccc3)C2CN1Cc1cccc2ccccc12` (centres unmarked) [COMPOUND 1], the “Number of colonies formed in soft agar” value with SW480 cells (0.25-5 μM) is listed as “dose dependent decrease”. In the assay on SW480 cells (5000 cells/well, colonies counted after 8 days), this compound registered an IC50 of 0.87 ± 0.11 µM. Moreover, in the assay with hnkd, the “mRNA hnkd (direction)” value is given as “↓”. The ΔCT hnkd came to 0.3 with hnkd (4 hours) and 1.0 in the assay with hnkd (8 hours).
